In patent publication US7932262B2 (Novartis AG, priority 2006, dated 2011):
Where two headings read alike, the source gives them in different places.

What was measured:
PDK1 kinase = molecular target: T1, PDK1 kinase (Homo sapiens, UniProt O15530); experiment: PDK1 Kinase Alpha Screen Assay; format: biochemical; settings: read-out: PDK1 IC50
T1 sequence (O15530 1-556): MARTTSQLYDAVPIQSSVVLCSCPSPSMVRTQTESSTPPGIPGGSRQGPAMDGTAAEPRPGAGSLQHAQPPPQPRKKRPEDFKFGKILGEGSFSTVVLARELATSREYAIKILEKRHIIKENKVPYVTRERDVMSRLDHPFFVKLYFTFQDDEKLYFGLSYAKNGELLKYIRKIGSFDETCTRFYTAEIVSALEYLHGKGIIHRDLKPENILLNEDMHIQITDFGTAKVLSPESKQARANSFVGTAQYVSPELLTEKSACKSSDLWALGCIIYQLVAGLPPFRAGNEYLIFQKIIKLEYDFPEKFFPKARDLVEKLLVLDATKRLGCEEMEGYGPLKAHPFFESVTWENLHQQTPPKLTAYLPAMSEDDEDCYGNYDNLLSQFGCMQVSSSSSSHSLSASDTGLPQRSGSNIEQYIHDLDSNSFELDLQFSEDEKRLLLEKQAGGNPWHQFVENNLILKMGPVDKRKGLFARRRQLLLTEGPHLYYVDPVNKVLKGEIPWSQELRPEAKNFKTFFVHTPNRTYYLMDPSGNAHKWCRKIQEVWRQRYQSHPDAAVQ
Experimental: 1. PDK1 Kinase Alpha Screen Assay
Reagents/Concentrations: The PDK1-4 peptide substrate, biotin-[…]-NH2, was purchased from the Tufts University Core Facility. The final concentration of PDK1-4 peptide substrate was 50 nM The ATP substrate (Adenosine-5′-triphosphate) was purchased from Roche Diagnostics. The final concentration of ATP substrate was 10 uM. Phospho-(Ser/Thr) PKA substrate antibody was purchased from Cell Signaling Technology. The final concentration of antibody was 0.3 mg/ml. The Alpha Screen Protein A detection kit containing donor and acceptor beads was purchased from PerkinElmer Life Sciences. The final concentration of both donor and acceptor beads was 25 μg/ml. Alpha Screen was used for detection. The biotinylated-PDK1-4 peptide was phosphorylated by PDK1 kinase using the ATP substrate. The biotinylated-PDK1-4 peptide substrate was bound to the streptavidin coated donor bead. The antibody was bound to the protein A coated acceptor bead. The antibody bound to the phosphorylated form of the biotinylated PDK-1 peptide substrate, bringing the donor and acceptor beads into close proximity. Laser irradiation of the donor bead at 680 nm generated a flow of short-lived singlet oxygen molecules. When the donor and acceptor beads were in close proximity, the reactive oxygen generated by the irradiation of the donor beads initiated a luminescence/fluorescence cascade in the acceptor beads. This process led to a highly amplified signal with output in the 530-620 nm range. Assays were carried out in 50 mM Tris, pH=7.5, 10 mM MgCl2, 0.1% Bovine Serum Albumin, 0.01% Tween-20, 2 mM Dithiolthreitol, 2.5% Dimethyl Sulfoxide. Reactions were stopped by adding 50 mM Tris, pH=7.5, 90 mM EDTA, 0.1% Bovine Serum Albumin, 0.01% Tween-20.
Procedure: To 10 μl of PDK1-4 peptide, 0.5 μl of test compound in dimethyl sulfoxide is added. PDK1 kinase and ATP are mixed. 10 μl of the PDK1 kinase/ATP mix is added to start the reaction. The reaction is allowed to proceed for 3-18 hours. The reactions are stopped by adding 10 μl of the EDTA-containing stop buffer. Beads are mixed with antibody. 25 μl of the bead/antibody mix is added to the stopped reactions. Plates are incubated at room temperature overnight to allow for detection development before being read. The assay is run is a 384-well format. […]

PC-3 cells = experiment: Cell Proliferation Assay (Cell Titer Glo), PC-3 cell line; format: cell-based; settings: Homo sapiens, read-out: CPEC50 PC3
Experimental: IV. Cell Proliferation Assay Protocol:
A2780, PC-3, or PC3MM cells were seeded at 1000 cells/well in 100 μL/well (10.000 cells/mL) growth media in 96-well plates. Cells were allowed to adhere to the bottom of plates for 3-5 hours in a 37° C. 5% CO2 incubator. Compounds were dissolved in DMSO and then transferred to the cell plates. The cells were incubated with the compounds for 3 days in a 37° C. 5% CO2 incubator. The growth medium containing the compounds was then removed from the cells and fresh medium was added, followed by 100 μL of Cell Titer Glo assay reagent (Promega). This mixture was shaken for 1 minute and then incubated without shaking for 10 minutes. Activity determinations for the compounds were made by detection on a Trilux Instrument.
V. Cell Proliferation Assay Protocol: PC-3 Cell Line
PC-3 cells were seeded at 1000 cells/well in 100 μL/well (10.000 cells/mL) along with growth media into black-walled, clear bottom 96-well plates. The cells were allowed to adhere to the bottom of the plate for 3-5 hours in a 37° C. 5% CO2 incubator.
Test compounds were diluted to 500× in DMSO. The DMSO solutions of six of the compounds were transferred to the cells in the 96 well round bottom plate, column 2, row B-F. A 1:3 serial dilution of each compound was carried out. The serial dilution comprised adding 20 μL of DMSO to the wells containing the compounds and doing a 1:3 dilution across the plate from columns 2-10. Column 11 contained only DMSO. The serial dilution was carried out using a BioMek 2000 protocol “CP Serial Dilution using 250 μL tips” or “Proliferation Compound” (if using 20 μL tips).
To a 96 deep well block, columns 2-11 rows B-F, was transferred 500 μL of growth medium. Using the FX protocol “HH_CellAssay—2 μL to 500 μL”, 2 μL of compound from each cell of the compound plate was transferred to the corresponding cell in the 96 deep well block containing 500 μL of growth medium. The instrument was programmed to dilute the compound in growth medium and then transfer 100 μL of that mixture to cell plates containing cells. The cell plates, to which test compounds had been added, were incubated for 3 days at 37° C. Following the incubation, the medium was removed and replaced with fresh medium. Cell Titer Glo (100 μL) was added to each well and the plate was shaken for 1 minute and then incubated without shaking for 10 minutes. The plates were then read using a Trilux instrument.

[1] = PC-3, Cell Proliferation Assay, PC3

| EC50 (PC-3 cells; [1]) [µM] | Compound | further results |
| --- | --- | --- |
| < 5 | CC(C)N1CCC(Oc2ccc3cnc(Nc4nc5ccccc5s4)nc3c2)CC1 [Compound 324, N-(7-(1-isopropylpiperidin-4-yloxy)quinazolin-2-yl)benzo[d]thiazol-2-amine] |  |
| 5 to 10 | O=C(NC1CCNCC1)c1ccc(Nc2ncc3c(Br)ccc(OC4CCNCC4)c3n2)cc1 [Compound 370, 4-(5-bromo-8-(piperidin-4-yloxy)quinazolin-2-ylamino)-N-(piperidin-4-yl)benzamide] |  |
| 5 to 10 | COc1cc(C(=O)NC2CCN(C)CC2)ccc1Nc1ncc2c(Br)ccc(OC3CCNCC3)c2n1 [Compound 371, 4-(5-bromo-8-(piperidin-4-yloxy)quinazolin-2-ylamino)-3-methoxy-N-(1-methylpiperidinyl)benzamide] |  |
| < 5 | Brc1ccc(OC2CCNCC2)c2nc(Nc3ccc(N4CCNCC4)cc3)ncc12 [Compound 372, 5-bromo-N-(4-(piperazin-1-yl)phenyl)-8-(piperidin-4-yloxy)quinazolin-2-amine] |  |
| 5 to 10 | Cc1ccc(OC2CCNCC2)c2nc(Nc3ccc(N4CCNCC4)cc3)ncc12 [Compound 374, 5-methyl-N-(4-(piperazin-1-yl)phenyl)-8-(piperidin-4-yloxy)quinazolin-2-amine] |  |
| 5 to 10 | Cc1ccc(OC2CCNCC2)c2nc(Nc3ccc(C(=O)NC4CCNCC4)cc3)ncc12 [Compound 376, 4-(5-methyl-8-(piperidin-4-yloxy)quinazolin-2-ylamino)-N-(piperidin-4-yl)benzamide] |  |
| 5 to 10 | CC(C)N1CCC(Oc2cccc3cnc(NC(=O)c4ccccc4)nc23)CC1 [Compound 541, N-(8-(1-isopropylpiperidin-4-yloxy)quinazolin-2-yl)benzamide] |  |
| 5 to 10 | CC(C)N1CCC(Oc2cccc3cnc(NS(=O)(=O)c4ccccc4)nc23)CC1 [Compound 542, N-(8-(1-isopropylpiperidin-4-yloxy)quinazolin-2-yl)benzenesulfonamide] |  |
| 5 to 10 | CC(=O)Nc1ncc2cccc(OC3CCN(C(C)C)CC3)c2n1 [Compound 544, N-(8-(1-isopropylpiperidin-4-yloxy)quinazolin-2-yl)acetamide] |  |

Further lines, the compound ahead of its results:

| Compound | EC50 (PC-3 cells; [1]) [µM] | further results |
| --- | --- | --- |
| CCCCNS(=O)(=O)c1cccc(Nc2ncc3cccc(-c4cccc(NC(C)=O)c4)c3n2)c1 [Compound 87, N-{3-[2-(3-Butylsulfamoyl-phenylamino)-quinazolin-8-yl]-phenyl}-acetamide] |  | IC50 (PDK1 kinase): 5 to 10 µM |
| NC(=O)c1ccccc1-c1ccc2cnc(Nc3ccc(S(N)(=O)=O)cc3)nc2c1 [Compound 125, 2-[2-(4-Sulfamoyl-phenylamino)-quinazolin-7-yl]-benzamide] |  | IC50 (PDK1 kinase): < 5 µM |
| CC(=O)Nc1cccc(-c2ccc3cnc(Nc4ccc(S(N)(=O)=O)cc4)nc3c2)c1 [Compound 126, N-{3-[2-(4-Sulfamoyl-phenylamino)-quinazolin-7-yl]-phenyl}-acetamide] |  | IC50 (PDK1 kinase): 5 to 10 µM |
| CS(=O)(=O)c1cccc(-c2ccc3cnc(Nc4ccc(S(N)(=O)=O)cc4)nc3c2)c1 [Compound 128, 4-[7-(3-Methanesulfonyl-phenyl)-quinazolin-2-ylamino]-benzenesulfonamlde] |  | IC50 (PDK1 kinase): < 5 µM |
| CS(=O)(=O)Nc1cccc(-c2ccc3cnc(Nc4ccc(S(N)(=O)=O)cc4)nc3c2)c1 [Compound 129, 4-[7-(3-Methanesulfonylamino-phenyl)-quinazolin-2-ylamino]-benzenesulfonamide] |  | IC50 (PDK1 kinase): 10 to 25 µM |
| CNc1ncc2ccc(OC3CCN(C(C)C)CC3)cc2n1 [Compound 322, 7-(1-isopropylpiperidin-4-yloxy)-N-methylquinazolin-2-amine] | 5 to 10 |  |
| CNc1ncc2ccc(O)c(C3CCN(C(C)C)CC3)c2n1 [Compound 323, 8-(1-isopropylpiperidin-4-yl)-2-(methylamino)quinazolin-7-ol] | 5 to 10 |  |
| COc1ccccc1Oc1cccc2cnc(Nc3ccc(S(N)(=O)=O)cc3)nc12 [Compound 408, 4-(8-(2-methoxyphenoxy)quinazolin-2-ylamino)benzenesulfonamide] |  | IC50 (PDK1 kinase; PDK1 Kinase Alpha Screen Assay): < 5 µM |
| NC(=O)c1cccc(Oc2cccc3cnc(Nc4ccc(S(N)(=O)=O)cc4)nc23)c1 [Compound 411, 3-(2-(4-sulfamoylphenylamino)quinazolin-8-yloxy)benzamide] |  | IC50 (PDK1 kinase; PDK1 Kinase Alpha Screen Assay): < 5 µM |
| NS(=O)(=O)c1ccc(Nc2ncc3cccc(Oc4ccnc(F)c4)c3n2)cc1 [Compound 412, 4-(8-(2-fluoropyridin-4-yloxy)quinazolin-2-ylamino)benzenesulfonamide] |  | IC50 (PDK1 kinase; PDK1 Kinase Alpha Screen Assay): < 5 µM |
| NS(=O)(=O)c1ccc(Nc2ncc3ccc(Oc4ccnc(F)c4)cc3n2)cc1 [Compound 416, 4-(7-(2-fluoropyridin-4-yloxy)quinazolin-2-ylamino)benzenesulfonamide] |  | IC50 (PDK1 kinase; PDK1 Kinase Alpha Screen Assay): < 5 µM |
| CC(C)N1CCC(Nc2ncc3cccc(O)c3n2)CC1 [Compound 543, 2-(1-isopropylpiperidin-4-ylamino)quinazolin-8-ol] | 5 to 10 |  |
| NS(=O)(=O)c1ccc(Nc2ncc3cc(C(=O)Nc4cccc(NC(=O)c5ccccc5)c4)ccc3n2)cc1 [Compound 578, N-(3-benzamidophenyl)-2-(4-sulfamoylphenylamino)quinazoline-6-carboxamide] | < 5 |  |
| CC(C)NC(=O)c1ccc(Nc2ncc3ccc(Oc4ccccc4)cc3n2)cc1 [Compound 591, N-isopropyl-4-(7-phenoxyquinazolin-2-ylamino)benzamide] | < 5 |  |
| Nc1ncc(-c2ccc3cnc(Nc4ccc(S(N)(=O)=O)cc4)nc3c2OC2CCNCC2)cc1C(F)(F)F [Compound 933, 4-(7-(6-amino-5-(trifluoromethyl)pyridin-3-yl)-8-(piperidin-4-yloxy)quinazolin-2-ylamino)benzenesulfonamide] |  | EC50 (PC-3 cells; PC-3, PC3 cells): < 5 µM |
| Nc1cc(C(F)(F)F)c(-c2ccc3cnc(Nc4ccc(S(N)(=O)=O)cc4)nc3c2OC2CCNCC2)cn1 [Compound 934, 4-(7-(6-amino-4-(trifluoromethyl)pyridin-3-yl)-8-(piperidin-4-yloxy)quinazolin-2-ylamino)benzenesulfonamide] |  | EC50 (PC-3 cells; PC-3, PC3 cells): < 5 µM |
| COc1cc(Nc2ncc3ccc(OC4CCNCC4)cc3n2)cc(OC)c1 [Compound 957, N-(3,5-dimethoxyphenyl)-7-(piperidin-4-yloxy)quinazolin-2-amine] |  | EC50 (PC-3 cells; PC-3, PC3 cells): < 5 µM |
